Results from article PMC6271338, “Synthesis and Cytotoxic Evaluation of Alkoxylated Chalcones” (Molecules, 2014).

Key:
[1] = Cytotoxicity (SRB) against non-tumoral HMLE cells; assay type: cell-based, human; conditions: human, HMLE cells (non-tumoral human mammary epithelial cells); increasing concentrations up to 100 μM; mean ± SD of at least three independent experiments; read-out: Normal Human Cell Lines, CC50, HMLE
A549 cells = assay: In vitro anti-proliferative SRB assay, A549; assay type: cell-based, human; conditions: for IC50: Homo sapiens, A549, increasing concentrations up to 30 μM, mean ± SD of at least three independent experiments; for SI (CC50 HMLE/IC50 A549) / SI (CC50 L02/IC50 A549): selectivity index; for SI (CC50 HMLE/IC50 A549): HMLE vs A549; for SI (CC50 L02/IC50 A549): L02 vs A549
[2] = Cytotoxicity (SRB) against non-tumoral L02 cells; assay type: cell-based, human; conditions: human, L02 cells (non-tumoral human liver cell line); increasing concentrations up to 100 μM; mean ± SD of at least three independent experiments; read-out: Normal Human Cell Lines, CC50, L02
SW1990 cells = assay: In vitro anti-proliferative SRB assay, SW1990; assay type: cell-based, human; conditions: for IC50: Homo sapiens, SW1990, increasing concentrations up to 30 μM, mean ± SD of at least three independent experiments; for SI (CC50 HMLE/IC50 SW1990) / SI (CC50 L02/IC50 SW1990): selectivity index; for SI (CC50 HMLE/IC50 SW1990): HMLE vs SW1990; for SI (CC50 L02/IC50 SW1990): L02 vs SW1990
HepG2 cells = assay: In vitro anti-proliferative SRB assay, HepG2; assay type: cell-based, human; conditions: for IC50: Homo sapiens, HepG2, increasing concentrations up to 30 μM, mean ± SD of at least three independent experiments; for SI (CC50 HMLE/IC50 HepG2) / SI (CC50 L02/IC50 HepG2): selectivity index; for SI (CC50 HMLE/IC50 HepG2): HMLE vs HepG2; for SI (CC50 L02/IC50 HepG2): L02 vs HepG2
MCF-7 cells = assay: In vitro anti-proliferative SRB assay, MCF-7; assay type: cell-based, human; conditions: for IC50: Homo sapiens, MCF7, increasing concentrations up to 30 μM, mean ± SD of at least three independent experiments; for SI (CC50 HMLE/IC50 MCF7) / SI (CC50 L02/IC50 MCF7): selectivity index; for SI (CC50 HMLE/IC50 MCF7): HMLE vs MCF7; for SI (CC50 L02/IC50 MCF7): L02 vs MCF7
[3] = test system: five human cancer cell lines (HepG2, HeLa, MCF-7, A549 and SW1990); assay: In vitro anti-proliferative SRB assay, summary statements over the five-line panel; assay type: cell-based; conditions: most of their in vitro IC50 values against the five human cancer lines
Protocol: With a aim of identifying potential anticancer agents with enhanced levels of activity, as well as verifying the conclusions provided above, we took a14 as a starting compound, and then designed and synthesized a series of chalcones b1–42 bearing methoxy groups at the 2' and 6'-positions of the B-ring, whilst varying the substituents on the A-ring. The cytotoxicities of the resulting chalcones were evaluated in vitro against five human cancer cell lines and other two non-tumoral cell lines, including HepG2, HeLa, MCF-7, A549, SW1990, HMLE and L02, and the results are shown in Table 2.
HepG2 and MCF7 cells were grown in the Eagle’s minimum essential medium with Earle’s balanced salts (MEM-EBSS) medium, HeLa, A549 and L02 cells were grown in Dulbecco’s Modified Eagle Media (DMEM), SW1990 cells were grown in RPMI-1640 medium, and HMLE cell were grown in DMEM/F-12 medium. The media were supplemented with 100 U/mL penicillin, […] streptomycin and 10% fetal bovine serum (FBS), and incubated at 37 °C in a humidified atmosphere containing 5% CO2.
Cells were seeded into 96-well plates (4000 cells/well) and incubated at 37 °C in a humidified 5% CO2 atmosphere. After 24 h, the cells were treated with different concentrations of the compounds for 48 h in triplicate to generate dose-response curves. Cell viability was evaluated using the sulforhodamine B (SRB) assay as previous described. […] Etoposide was used as the positive control.

HeLa cells = assay: In vitro anti-proliferative SRB assay, HeLa; assay type: cell-based, human; conditions: for IC50: Homo sapiens, HeLa, increasing concentrations up to 30 μM, mean ± SD of at least three independent experiments; for SI (CC50 HMLE/IC50 Hela) / SI (CC50 L02/IC50 Hela): selectivity index; for SI (CC50 HMLE/IC50 Hela): HMLE vs HeLa; for SI (CC50 L02/IC50 Hela): L02 vs HeLa

| Compound | CC50 at 48 h [1] [µM] | IC50 (A549 cells) [µM] | SI (CC50 HMLE/IC50 A549) (A549 cells) | SI (CC50 L02/IC50 A549) (A549 cells) | CC50 at 48 h [2] [µM] | IC50 (SW1990 cells) [µM] | SI (CC50 HMLE/IC50 SW1990) (SW1990 cells) | SI (CC50 L02/IC50 SW1990) (SW1990 cells) | IC50 (HepG2 cells) [µM] | SI (CC50 HMLE/IC50 HepG2) (HepG2 cells) | SI (CC50 L02/IC50 HepG2) (HepG2 cells) | IC50 (MCF-7 cells) [µM] | SI (CC50 HMLE/IC50 MCF7) (MCF-7 cells) | SI (CC50 L02/IC50 MCF7) (MCF-7 cells) | IC50 [3] [µM] | IC50 (HeLa cells) [µM] | SI (CC50 HMLE/IC50 Hela) (HeLa cells) | SI (CC50 L02/IC50 Hela) (HeLa cells) | melting point [°C] | also measured |
| --- | --- | --- | --- | --- | --- | --- | --- | --- | --- | --- | --- | --- | --- | --- | --- | --- | --- | --- | --- | --- |
| COc1ccccc1C(=O)/C=C/c1c(OC)cccc1OC [b6, (E)-1-(2-Methoxyphenyl)-3-(2,6-dimethoxyphenyl)prop-2-en-1-one] | 4.01 ± 0.05 | 6.35 ± 0.32 | 0.6 | 1.4 | 8.78 ± 1.21 | 10 ± 0.14 | 0.4 | 0.9 | 2.05 ± 0.22 | 2.0 | 4.3 | 5.6 ± 0.17 | 0.7 | 1.6 | < 10 | 5 ± 0.03 | 0.8 | 1.8 | 109 to 111.4 | – |
| CCOc1ccc(C(=O)/C=C/c2c(OC)cccc2OC)cc1OC [b16, (E)-1-(4-Ethoxy-3-methoxyphenyl)-3-(2,6-dimethoxyphenyl)prop-2-en-1-one] | 9.15 ± 1.33 | 5.78 ± 0.11 | 1.6 | 7.7 | 44.7 ± 8.15 | 7.67 ± 0.04 | 1.2 | 5.8 | 4.14 ± 0.11 | 2.2 | 10.8 | 4.79 ± 0.13 | 1.9 | 9.3 | < 10 | 5.02 ± 0.09 | 1.8 | 8.9 | 105.3 to 107.2 | – |
| COc1ccc(OC)c(C(=O)/C=C/c2c(OC)cccc2OC)c1 [b18, (E)-1-(2,5-Dimethoxyphenyl)-3-(2,6-dimethoxyphenyl)prop-2-en-1-one] | 2.48 ± 0.34 | 4.16 ± 0.72 | 0.6 | 4.1 | 17 ± 2.73 | 9.64 ± 0.18 | 0.3 | 1.8 | 1.59 ± 0.15 | 1.6 | 10.7 | 5.6 ± 0.06 | 0.4 | 3.0 | < 10 | 4.56 ± 0.22 | 0.5 | 3.7 | 121 to 122 | – |
| COc1cccc(OC)c1/C=C/C(=O)c1ccc(-c2ccccc2)cc1 [b22, (E)-1-([1,1'-Biphenyl]-4-yl)-3-(2,6-dimethoxyphenyl)prop-2-en-1-one] | 2.21 ± 0.09 | 1.75 ± 0.15 | 1.3 | 8.3 | 14.5 ± 6.58 | 1.24 ± 0.08 | 1.8 | 11.7 | 0.25 ± 0.03 | 8.8 | 58.2 | 2.4 ± 0.08 | 0.9 | 6.1 | < 10 | 0.87 ± 0.25 | 2.5 | 16.7 | 121.7 to 123.5 | fold as potent than etoposide (SW1990 cells; SW1990 cells, ratio of IC50 values versus etoposide): 23.6 fold; fold as potent than etoposide (HepG2 cells; HepG2 cells, ratio of IC50 values versus etoposide): 20.4 fold |
| COc1cccc(OC)c1/C=C/C(=O)c1cccc(N)c1 [b23, (E)-1-(3-Aminophenyl)-3-(2,6-dimethoxyphenyl)prop-2-en-1-one] | 11.4 ± 0.76 | 7.32 ± 0.29 | 1.6 | 5.9 | 43.2 ± 11.7 | 10.07 ± 0.03 | 1.1 | 4.3 | 5.7 ± 0.09 | 2.0 | 7.6 | 8.56 ± 0.75 | 1.3 | 5.0 | < 10 | 7.23 ± 0.07 | 1.6 | 6.0 | 148.6 to 150.3 | – |
| COc1cccc(OC)c1/C=C/C(=O)c1ccc(Cl)cc1Cl [b37, (E)-1-(2,4-Dichlorophenyl)-3-(2,6-dimethoxyphenyl)prop-2-en-1-one] | 19.8 ± 1.44 | > 30 | <0.7 | – | > 100 | 15.4 ± 0.83 | 1.3 | >6.5 | 11.7 ± 0.18 | 1.7 | >8.5 | 30.4 ± 0.71 | 0.7 | >3.3 | – | 15.7 ± 1.09 | 1.3 | >6.4 | 111.1 to 112.7 | – |
| COc1cccc(OC)c1/C=C/C(=O)c1ccc(Cl)c(Cl)c1 [b38, (E)-1-(3,4-Dichlorophenyl)-3-(2,6-dimethoxyphenyl)prop-2-en-1-one] | 28.3 ± 3.74 | 27.6 ± 0.58 | 1.0 | >3.6 | > 100 | 26.16 ± 0.08 | 1.1 | >3.8 | 18.6 ± 1.24 | 1.5 | >5.4 | 29.6 ± 2.13 | 1.0 | >3.4 | – | 17.6 ± 2.01 | 1.6 | >5.7 | 142.1 to 143.4 | – |
